Publication PMC10318822, “Phase 1 dose-escalation study to evaluate the safety, tolerability, pharmacokinetics, and anti-tumor activity of FCN-159 in adults with neurofibromatosis type 1-related unresectable plexiform neurofibromas” (BMC Medicine, 2023)

Tests used:
[1] = system: patients with NF1-related PN with tumor pain; test: Pain assessed by 11-point numerical rating scale (NRS-11); type: in vivo, human
Experimental: Efficacy was assessed by radiologic scans and clinical assessment.

[2] = design: method as in PMID 36113242; conditions: patients with NRAS mut+ melanoma; cited from earlier work

## Cn1c(=O)c(F)c(Nc2ccc(I)cc2F)c2c(=O)n(C3CC3)nc(-c3cccc(NS(=O)(=O)C4CC4)c3)c21 [FCN-159]
[1]; NRS-11 score ≥ 2 at baseline (16/22), cycles 4 and 5, as of 9 August 2022
  Patients with reduction in pain intensity of at least 2 points: 72.7%
[1]; across all patients, as of 9 August 2022
  Average decrease in pain scores: 2.4 points
[1]; as of 9 August 2022
  Patients achieving complete pain relief at least once (score reduced to 0): 13 patients
[1]; dose group of 8 mg
  Mean pain score reduction: 2.5 points
[1]; dose group of 8 mg (15/20)
  Patients achieving meaningful pain improvement: 75%
[2]
  Mean T1/2: 32 to 57 h
